What was measured:
[1] = 298.15 K; 101.33 kPa; Liquid; Pycnometric method
[2] = refractive index (Na D-line) (dimensionless); settings: 298.15 K; 101.33 kPa; Liquid; Standard Abbe refractometry
[3] = xn = mol fraction of the nth substance listed; settings: 303.15 K, 101 kPa, Liquid, Direct dilatometry
[4] = excess molar enthalpy (molar enthalpy of mixing); xn = mol fraction of the nth substance listed; settings: 298.15 K, 101 kPa, Liquid

CC(C)CO [2-methyl-1-propanol]
Settings	mass density [kg/m3]	refractive index
[1]	794.34	–
[2]	–	1.3939

CC(C)CO [2-methyl-1-propanol] + CN1CCCC1=O
Settings	excess molar enthalpy [kcal/mol]	excess molar volume [m3/mol]
[3], x2 = 0.1356	–	-9.8e-08
[3], x2 = 0.2201	–	-1.47e-07
[3], x2 = 0.2921	–	-1.74e-07
[3], x2 = 0.4102	–	-2.06e-07
[3], x2 = 0.5144	–	-2.26e-07
[3], x2 = 0.5994	–	-2.32e-07
[3], x2 = 0.6915	–	-2.21e-07
[3], x2 = 0.8044	–	-1.86e-07
[3], x2 = 0.9237	–	-9.6e-08
[4], x2 = 0.051	0.0366	–
[4], x2 = 0.1288	0.0654	–
[4], x2 = 0.2035	0.085	–
[4], x2 = 0.2736	0.0939	–
[4], x2 = 0.3385	0.0957	–
[4], x2 = 0.3939	0.0938	–
[4], x2 = 0.4477	0.0902	–
[4], x2 = 0.4974	0.0863	–
[4], x2 = 0.543	0.0817	–
[4], x2 = 0.6198	0.0645	–
[4], x2 = 0.6816	0.0585	–
[4], x2 = 0.748	0.0524	–
[4], x2 = 0.8179	0.0474	–
[4], x2 = 0.8911	0.0354	–
[4], x2 = 0.9686	0.0224	–

CC(C)(C)O [2-methylpropan-2-ol]
Settings	mass density [kg/m3]	refractive index
[1]	776.16	–
[2]	–	1.3851

CC(C)(C)O [2-methylpropan-2-ol] + CN1CCCC1=O
Settings	excess molar enthalpy [kcal/mol]	excess molar volume [m3/mol]
[3], x2 = 0.1121	–	-3.2e-08
[3], x2 = 0.2423	–	-8.4e-08
[3], x2 = 0.3215	–	-1.16e-07
[3], x2 = 0.4128	–	-1.36e-07
[3], x2 = 0.4601	–	-1.52e-07
[3], x2 = 0.5403	–	-1.48e-07
[3], x2 = 0.6359	–	-1.42e-07
[3], x2 = 0.7246	–	-1.18e-07
[3], x2 = 0.8032	–	-9e-08
[3], x2 = 0.8404	–	-6.4e-08
[3], x2 = 0.9238	–	-2.6e-08
[4], x2 = 0.0634	0.0223	–
[4], x2 = 0.1313	0.0597	–
[4], x2 = 0.2034	0.094	–
[4], x2 = 0.2666	0.117	–
[4], x2 = 0.3319	0.135	–
[4], x2 = 0.3942	0.145	–
[4], x2 = 0.4382	0.142	–
[4], x2 = 0.4828	0.14	–
[4], x2 = 0.5381	0.137	–
[4], x2 = 0.6026	0.128	–
[4], x2 = 0.6733	0.112	–
[4], x2 = 0.7442	0.0971	–
[4], x2 = 0.829	0.0662	–
[4], x2 = 0.9194	0.0342	–

CC(C)CCO [3-methylbutan-1-ol]
Settings	mass density [kg/m3]	refractive index
[1]	801.76	–
[2]	–	1.4053

CC(C)CCO [3-methylbutan-1-ol] + CN1CCCC1=O
Settings	excess molar enthalpy [kcal/mol]	excess molar volume [m3/mol]
[3], x2 = 0.0999	–	-7.8e-08
[3], x2 = 0.2737	–	-1.69e-07
[3], x2 = 0.3718	–	-1.97e-07
[3], x2 = 0.4155	–	-2.09e-07
[3], x2 = 0.5254	–	-2.01e-07
[3], x2 = 0.6399	–	-1.76e-07
[3], x2 = 0.7034	–	-1.49e-07
[3], x2 = 0.8699	–	-7.3e-08
[3], x2 = 0.9384	–	-3.6e-08
[4], x2 = 0.0777	0.0394	–
[4], x2 = 0.149	0.0727	–
[4], x2 = 0.2286	0.101	–
[4], x2 = 0.3011	0.112	–
[4], x2 = 0.3692	0.12	–
[4], x2 = 0.4301	0.119	–
[4], x2 = 0.4847	0.116	–
[4], x2 = 0.5348	0.113	–
[4], x2 = 0.5484	0.114	–
[4], x2 = 0.5792	0.108	–
[4], x2 = 0.6031	0.103	–
[4], x2 = 0.6712	0.0904	–
[4], x2 = 0.744	0.0778	–
[4], x2 = 0.8153	0.0615	–
[4], x2 = 0.8821	0.0416	–
[4], x2 = 0.9444	0.0212	–

CN1CCCC1=O [N-methylpyrrolidone]
Settings	mass density [kg/m3]	refractive index
[1]	1023.4	–
[2]	–	1.4674

CN1CCCC1=O [N-methylpyrrolidone] + CC(C)O
Settings	excess molar enthalpy [kcal/mol]	excess molar volume [m3/mol]
[3], x1 = 0.1498	–	-5.2e-08
[3], x1 = 0.2066	–	-7.8e-08
[3], x1 = 0.3202	–	-1.29e-07
[3], x1 = 0.4317	–	-1.57e-07
[3], x1 = 0.5027	–	-1.62e-07
[3], x1 = 0.5854	–	-1.66e-07
[3], x1 = 0.7216	–	-1.42e-07
[3], x1 = 0.8148	–	-1.06e-07
[3], x1 = 0.9062	–	-5.8e-08
[4], x1 = 0.0516	0.0709	–
[4], x1 = 0.1082	0.137	–
[4], x1 = 0.1702	0.19	–
[4], x1 = 0.2279	0.223	–
[4], x1 = 0.2894	0.24	–
[4], x1 = 0.3471	0.248	–
[4], x1 = 0.4059	0.246	–
[4], x1 = 0.4562	0.238	–
[4], x1 = 0.595	0.174	–
[4], x1 = 0.6888	0.147	–
[4], x1 = 0.7874	0.113	–
[4], x1 = 0.892	0.0648	–

CN1CCCC1=O [N-methylpyrrolidone] + CCC(C)O
Settings	excess molar enthalpy [kcal/mol]	excess molar volume [m3/mol]
[3], x1 = 0.1046	–	-6.5e-08
[3], x1 = 0.1831	–	-1.26e-07
[3], x1 = 0.249	–	-1.62e-07
[3], x1 = 0.3096	–	-1.93e-07
[3], x1 = 0.3777	–	-2.19e-07
[3], x1 = 0.4817	–	-2.38e-07
[3], x1 = 0.5739	–	-2.3e-07
[3], x1 = 0.6355	–	-2.16e-07
[3], x1 = 0.7494	–	-1.64e-07
[3], x1 = 0.8086	–	-1.36e-07
[3], x1 = 0.9142	–	-6.4e-08
[4], x1 = 0.0691	0.0413	–
[4], x1 = 0.1595	0.0937	–
[4], x1 = 0.2388	0.123	–
[4], x1 = 0.3106	0.134	–
[4], x1 = 0.3733	0.14	–
[4], x1 = 0.4822	0.136	–
[4], x1 = 0.5305	0.131	–
[4], x1 = 0.5614	0.124	–
[4], x1 = 0.6341	0.109	–
[4], x1 = 0.7217	0.0872	–
[4], x1 = 0.8176	0.0598	–
[4], x1 = 0.9067	0.0327	–

CCC(C)O (stereo not given) [butan-2-ol]
Settings	mass density [kg/m3]	refractive index
[1]	798.92	–
[2]	–	1.3954

CC(C)O [propan-2-ol]
Settings	mass density [kg/m3]	refractive index
[1]	776.88	–
[2]	–	1.375

Reference: the NIST ThermoML archive (doi:10.1016/j.fluid.2006.12.012)
